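In this assay, cells in 96-well plates receive the compound at five concentrations for 48 hours. Endpoints are linearly interpolated between the surrounding concentrations. GI50 = concentration required for 50% inhibition of growth. TGI is the concentration that stops growth completely.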
Columns and labels:
Experiment in all cases: growth of human tumour cells (NCI), 48 h
786-0 renal = tested on: 786-0 renal
A498 renal = tested on: A498 renal
A549 NSCLC = tested on: A549 NSCLC
ACHN renal = tested on: ACHN renal
BT-549 breast = tested on: BT-549 breast
CAKI-1 renal = tested on: CAKI-1 renal
CCRF-CEM leukemia = tested on: CCRF-CEM leukemia
COLO 205 colon = tested on: COLO 205 colon
DU-145 prostate = tested on: DU-145 prostate
EKVX NSCLC = tested on: EKVX NSCLC
HCC-2998 colon = tested on: HCC-2998 colon
HCT-15 colon = tested on: HCT-15 colon
HL-60(TB) leukemia = tested on: HL-60(TB) leukemia
HOP-62 NSCLC = tested on: HOP-62 NSCLC
HOP-92 NSCLC = tested on: HOP-92 NSCLC
HS 578T breast = tested on: HS 578T breast
HT29 colon = tested on: HT29 colon
IGROV1 ovarian = tested on: IGROV1 ovarian
K-562 leukemia = tested on: K-562 leukemia
KM12 colon = tested on: KM12 colon
LOX IMVI melanoma = tested on: LOX IMVI melanoma
M14 melanoma = tested on: M14 melanoma
MALME-3M melanoma = tested on: MALME-3M melanoma
MCF7 breast = tested on: MCF7 breast
MDA-MB-231 breast = tested on: MDA-MB-231 breast
MDA-MB-435 = tested on: MDA-MB-435
MOLT-4 leukemia = tested on: MOLT-4 leukemia
NCI-H226 lung = tested on: NCI-H226 lung
NCI-H23 lung = tested on: NCI-H23 lung
NCI-H460 lung = tested on: NCI-H460 lung
NCI-H522 lung = tested on: NCI-H522 lung
NCI/ADR-RES ovarian = tested on: NCI/ADR-RES ovarian
OVCAR-3 ovarian = tested on: OVCAR-3 ovarian
OVCAR-4 ovarian = tested on: OVCAR-4 ovarian
OVCAR-5 ovarian = tested on: OVCAR-5 ovarian
OVCAR-8 ovarian = tested on: OVCAR-8 ovarian
PC-3 prostate = tested on: PC-3 prostate
RPMI-8226 leukemia = tested on: RPMI-8226 leukemia
RXF 393 renal = tested on: RXF 393 renal
SF-268 CNS = tested on: SF-268 CNS
SF-295 CNS = tested on: SF-295 CNS
SF-539 CNS = tested on: SF-539 CNS
SK-MEL-2 melanoma = tested on: SK-MEL-2 melanoma
SK-MEL-28 melanoma = tested on: SK-MEL-28 melanoma
SK-MEL-5 melanoma = tested on: SK-MEL-5 melanoma
SK-OV-3 ovarian = tested on: SK-OV-3 ovarian
SN12C renal = tested on: SN12C renal
SNB-19 CNS = tested on: SNB-19 CNS
SNB-75 CNS = tested on: SNB-75 CNS
SR leukemia = tested on: SR leukemia
SW-620 colon = tested on: SW-620 colon
T-47D breast = tested on: T-47D breast
TK-10 renal = tested on: TK-10 renal
U251 CNS = tested on: U251 CNS
UACC-257 melanoma = tested on: UACC-257 melanoma
UACC-62 melanoma = tested on: UACC-62 melanoma
UO-31 renal = tested on: UO-31 renal
HCT-116 colon = tested on: HCT-116 colon

CCC1=C(c2ccc(OC)cc2)C(C)(C)Oc2c1ccc(O)c2CN1CCCC1
GI50 (786-0 renal): 4.02 µM
TGI (786-0 renal): 20.2 µM
GI50 (A498 renal): 1.23 µM
TGI (A498 renal): 7.95 µM
GI50 (A549 NSCLC): 3.63 µM
TGI (A549 NSCLC): 26.8 µM
GI50 (ACHN renal): 3.6 µM
TGI (ACHN renal): > 100 µM
GI50 (BT-549 breast): 2.29 µM
TGI (BT-549 breast): 12.7 µM
GI50 (CAKI-1 renal): 2.95 µM
TGI (CAKI-1 renal): 30.4 µM
GI50 (CCRF-CEM leukemia): 1.86 µM
TGI (CCRF-CEM leukemia): 5.38 µM
GI50 (COLO 205 colon): 14.9 µM
TGI (COLO 205 colon): 87.4 µM
GI50 (DU-145 prostate): 3.77 µM
TGI (DU-145 prostate): > 100 µM
GI50 (EKVX NSCLC): 18.6 µM
TGI (EKVX NSCLC): > 100 µM
GI50 (HCC-2998 colon): 1.44 µM
TGI (HCC-2998 colon): 2.88 µM
GI50 (HCT-15 colon): 1.91 µM
TGI (HCT-15 colon): 4.44 µM
GI50 (HL-60(TB) leukemia): 0.871 µM
TGI (HL-60(TB) leukemia): 3.12 µM
GI50 (HOP-62 NSCLC): 1.99 µM
TGI (HOP-62 NSCLC): 7.03 µM
GI50 (HOP-92 NSCLC): 1.23 µM
TGI (HOP-92 NSCLC): 3.98 µM
GI50 (HS 578T breast): 3.44 µM
TGI (HS 578T breast): 35.1 µM
GI50 (HT29 colon): 3.14 µM
TGI (HT29 colon): 8.94 µM
GI50 (IGROV1 ovarian): 3.84 µM
TGI (IGROV1 ovarian): 23.9 µM
GI50 (K-562 leukemia): 0.759 µM
TGI (K-562 leukemia): 3.1 µM
GI50 (KM12 colon): 1.91 µM
TGI (KM12 colon): 3.9 µM
GI50 (LOX IMVI melanoma): 1.46 µM
TGI (LOX IMVI melanoma): 2.8 µM
GI50 (M14 melanoma): 1.65 µM
TGI (M14 melanoma): 3.39 µM
GI50 (MALME-3M melanoma): 2.05 µM
TGI (MALME-3M melanoma): 5.36 µM
GI50 (MCF7 breast): 1.57 µM
TGI (MCF7 breast): 3.2 µM
GI50 (MDA-MB-231 breast): 2.39 µM
TGI (MDA-MB-231 breast): 4.97 µM
GI50 (MDA-MB-435): 1.71 µM
TGI (MDA-MB-435): 4.03 µM
GI50 (MOLT-4 leukemia): 2.18 µM
TGI (MOLT-4 leukemia): 6.53 µM
GI50 (NCI-H226 lung): 2.45 µM
TGI (NCI-H226 lung): 14.7 µM
GI50 (NCI-H23 lung): 3.02 µM
TGI (NCI-H23 lung): 21.6 µM
GI50 (NCI-H460 lung): 1.7 µM
TGI (NCI-H460 lung): 3.59 µM
GI50 (NCI-H522 lung): 1.97 µM
TGI (NCI-H522 lung): 3.96 µM
GI50 (NCI/ADR-RES ovarian): 3.05 µM
TGI (NCI/ADR-RES ovarian): 16 µM
GI50 (OVCAR-3 ovarian): 4.13 µM
TGI (OVCAR-3 ovarian): 36.2 µM
GI50 (OVCAR-4 ovarian): 2.16 µM
TGI (OVCAR-4 ovarian): 29 µM
GI50 (OVCAR-5 ovarian): 4.1 µM
TGI (OVCAR-5 ovarian): 29.4 µM
GI50 (OVCAR-8 ovarian): 2.11 µM
TGI (OVCAR-8 ovarian): 4.94 µM
GI50 (PC-3 prostate): 2.58 µM
TGI (PC-3 prostate): 29.3 µM
GI50 (RPMI-8226 leukemia): 0.721 µM
TGI (RPMI-8226 leukemia): 2.45 µM
GI50 (RXF 393 renal): 1.24 µM
TGI (RXF 393 renal): 3.87 µM
GI50 (SF-268 CNS): 8.8 µM
TGI (SF-268 CNS): > 100 µM
GI50 (SF-295 CNS): 2.33 µM
TGI (SF-295 CNS): 6.01 µM
GI50 (SF-539 CNS): 3.05 µM
TGI (SF-539 CNS): 17.2 µM
GI50 (SK-MEL-2 melanoma): 1.98 µM
TGI (SK-MEL-2 melanoma): 3.7 µM
GI50 (SK-MEL-28 melanoma): 1.7 µM
TGI (SK-MEL-28 melanoma): 3.32 µM
GI50 (SK-MEL-5 melanoma): 1.3 µM
TGI (SK-MEL-5 melanoma): 2.57 µM
GI50 (SK-OV-3 ovarian): 8.23 µM
TGI (SK-OV-3 ovarian): > 100 µM
GI50 (SN12C renal): 3.74 µM
TGI (SN12C renal): > 100 µM
GI50 (SNB-19 CNS): 6.69 µM
TGI (SNB-19 CNS): 56.9 µM
GI50 (SNB-75 CNS): 1.66 µM
TGI (SNB-75 CNS): 87.4 µM
GI50 (SR leukemia): 0.927 µM
TGI (SR leukemia): 3.63 µM
GI50 (SW-620 colon): 1.71 µM
TGI (SW-620 colon): 3.3 µM
GI50 (T-47D breast): 1.45 µM
TGI (T-47D breast): 4.64 µM
GI50 (TK-10 renal): 5.26 µM
TGI (TK-10 renal): 31.3 µM
GI50 (U251 CNS): 1.48 µM
TGI (U251 CNS): 3.04 µM
GI50 (UACC-257 melanoma): 1.78 µM
TGI (UACC-257 melanoma): 3.85 µM
GI50 (UACC-62 melanoma): 1.81 µM
TGI (UACC-62 melanoma): 3.86 µM
GI50 (UO-31 renal): 2.19 µM
TGI (UO-31 renal): > 100 µM

Cc1ccc2nc3ccccc3c(C3C4C(=O)N(c5ccc(F)cc5)C(=O)C4ON3C(C(N)=O)c3ccccc3)c2c1 (stereo not given)
TGI (786-0 renal): > 100 µM
TGI (A498 renal): > 100 µM
TGI (A549 NSCLC): > 100 µM
TGI (ACHN renal): > 100 µM
TGI (BT-549 breast): > 100 µM
TGI (CAKI-1 renal): > 100 µM
TGI (CCRF-CEM leukemia): > 100 µM
TGI (COLO 205 colon): 35.7 µM
TGI (DU-145 prostate): > 100 µM
TGI (EKVX NSCLC): > 100 µM
TGI (HCT-116 colon): > 100 µM
TGI (HCT-15 colon): > 100 µM
TGI (HL-60(TB) leukemia): > 100 µM
TGI (HOP-62 NSCLC): > 100 µM
TGI (HOP-92 NSCLC): > 100 µM
TGI (HS 578T breast): > 100 µM
TGI (HT29 colon): > 100 µM
TGI (IGROV1 ovarian): > 100 µM
TGI (K-562 leukemia): > 100 µM
TGI (KM12 colon): > 100 µM
TGI (LOX IMVI melanoma): > 100 µM
TGI (M14 melanoma): > 100 µM
TGI (MALME-3M melanoma): 80.7 µM
TGI (MCF7 breast): 80.8 µM
TGI (MDA-MB-231 breast): > 100 µM
TGI (MDA-MB-435): 99 µM
TGI (MOLT-4 leukemia): > 100 µM
TGI (NCI-H226 lung): > 100 µM
TGI (NCI-H23 lung): > 100 µM
TGI (NCI-H460 lung): > 100 µM
TGI (NCI-H522 lung): 57.8 µM
TGI (NCI/ADR-RES ovarian): 90.2 µM
TGI (OVCAR-3 ovarian): 71.6 µM
TGI (OVCAR-4 ovarian): > 100 µM
TGI (OVCAR-5 ovarian): > 100 µM
TGI (OVCAR-8 ovarian): > 100 µM
TGI (PC-3 prostate): > 100 µM
TGI (RPMI-8226 leukemia): 77.6 µM
TGI (RXF 393 renal): > 100 µM
TGI (SF-268 CNS): > 100 µM
TGI (SF-295 CNS): > 100 µM
TGI (SF-539 CNS): 72.1 µM
TGI (SK-MEL-2 melanoma): > 100 µM
TGI (SK-MEL-28 melanoma): > 100 µM
TGI (SK-OV-3 ovarian): > 100 µM
TGI (SN12C renal): > 100 µM
TGI (SNB-19 CNS): > 100 µM
TGI (SNB-75 CNS): > 100 µM
TGI (SR leukemia): > 100 µM
TGI (SW-620 colon): > 100 µM
TGI (T-47D breast): > 100 µM
TGI (TK-10 renal): > 100 µM
TGI (U251 CNS): > 100 µM
TGI (UACC-257 melanoma): > 100 µM
TGI (UACC-62 melanoma): > 100 µM
TGI (UO-31 renal): > 100 µM

Source: PubChem BioAssay (NCI)
